For assay [1], the system named is JNK. Description: JNK Activation Assay in Panc-1 (western blot). It counts as cell-based, Human. The arrangement: key: Y = yes; N = No. The following applies: at 10 μM. How it is done: Cell lines: Human tumor-derived pancreatic cancer cell line Panc-1 and mouse muscle myoblast C2C12 were purchased from American Type Culture Collection and grown in complete DMEM-High Glucose, supplemented with penicillin (100 U/mL), streptomycin (100 μg/mL), and 10% heat-inactivated FBS at 37° C. in a humidified incubator with 5% CO2.
Method: Cells were plated at 350000 cells/well density in a 12-well plate, allowed 3 hours to adhere to the plate, then starved in the appropriate medium in the presence of 0.5% FBS overnight. The small molecules to be tested were added to the cells in the final concentration of 10 μM in the presence of 0.3% DMSO for 3 hours incubation at 37° C. For IC50 value determination, serial dilutions of compounds were added to cells under the same conditions. Next, Panc-1 cells were stimulated with 10 ng/ml TGF-b1 for 1 hour, and C2C12 cells were stimulated with 10 ng/ml TGF-b1 for 20 minutes (recombinant human TGF-b1, R&D Systems). After stimulation cells were lysed with lysis buffer containing 1% Triton X-100, EDTA, and Halt™ Protease & Phosphatase Inhibitor Cocktail (Thermo Scientific). Protein concentration was assessed by BCA protein assay (Thermo Scientific). Phosphorylation level of JNK was determined by western blot.
Western blot protocol: Equal amounts of protein (15-50 μg) were separated by SDS-PAGE and transferred to nitrocellulose membranes (Invitrogen by Thermo Fisher Scientific). The membrane was stained with Ponceau S Stain (Boston BioProducts) to verify uniform protein loading. Membranes were blocked with 10% milk and phosphorylation levels of Smad2, Smad3, INK and p38 were assessed by incubating overnight at 4° C. with the following antibody: Phospho-SAPK/JNK (Thr183/Tyr185), from Cell Signaling Technology. Then the membranes were incubated with HRP-conjugated secondary antibody (Jackson Immunoresearch, West Grove, PA). Bands were incubated in Amersham ECL Prime Western Blotting Detection Reagent (GE Healthcare) and visualized using the ChemiDoc MP imaging system (Bio-Rad).
In general terms: A western blot detects proteins with antibodies after separation by electrophoresis.

The target in assay [2] is KRas wild type (Homo sapiens (Human), UniProt P01116). The assay can be described thus: Ras GTP Binding Domain Inhibition Assay, KRas wild type. How it is done: (§1) A Ras Superfamily Activity Assay (as disclosed in International Application No. PCT/US2018/038613, filed Jun. 20, 2018, which is incorporated by reference in its entirety) was used as a specific assay to evaluate compounds against the following for the following Ras Superfamily proteins: KRas wild type, KRas Q61H mutant, KRas G12C mutant, KRas G12D mutant, Rac-1, and Rho-A.
KRas wild type, sequence (P01116 other isoform, or with tags, fused parts or gaps): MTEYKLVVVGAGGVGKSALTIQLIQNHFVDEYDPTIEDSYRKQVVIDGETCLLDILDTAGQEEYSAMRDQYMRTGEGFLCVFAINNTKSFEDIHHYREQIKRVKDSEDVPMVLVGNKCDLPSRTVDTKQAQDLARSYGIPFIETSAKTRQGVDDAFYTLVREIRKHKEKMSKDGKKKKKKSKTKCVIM
(§2) Buffer-I: • 25 mM Tris-HCl, pH 7.4 • 27 mM KCl • 137 mM NaCl • 1 mM MgCl2 • 1 mM DTT
(§3) Buffer-II: • 50 mM Tris-HCl, pH 7.0 • 1 mM MgCl2 • 1 mM DTT
(§4) The small GTPases proteins: KRas wild type. KRas Q61H mutant, KRas G12C mutant, KRas G12D mutants, Rac-1, and Rho-A were expressed as His-tagged proteins. In addition, the Guanosine nucleotide Exchange Factor (GEF) Sos protein (residues 556-1049) was expressed as a His-tagged protein. In cells, the guanine nucleotide exchange factor Sos protein promotes activation of Ras proteins by stimulating an exchange of GDP for GTP. The inclusion of Sos to the Ras GTP binding domain inhibition assay may be considered as an alternative representation of physiological cellular conditions for evaluating the inhibitory activity of some of the tested small molecules.
(§5) For the assay, all purified small GTPases proteins were diluted in Buffer-I or Buffer-II to a final concentration of 10-30 μg/mL. 200 μL of each diluted protein was added to a nickel-coated 96-well plate and incubated overnight at 4° C. Then the protein solution was discarded and 200 μL of Buffer-I or Buffer-II was added to each well in the presence of 1% DMSO. Compounds to be tested were added to the protein-coated wells at final concentration of 20 μM, and incubated for 3 hours at room temperature with and without 10-30 μg/mL of Sos added to the final hour of the incubation. When performing IC50 measurements a serial dilution of all tested concentrations was added. Then Cy3-GTP or Cy5-GTP was added to each well to a final concentration of 100 nM. The labeled GTP was incubated for 45 minutes at room temperature. Following GTP incubation, wells were washed 3× in Buffer-I or Buffer-II and 200 μL of Buffer-I or Buffer-II was added to each well. Following washes, the amount of bound labeled-GTP was measured using a SpectraMax M3 (Molecular Devices).

Assay [3] deals with KRas G12C mutant (Homo sapiens (Human), UniProt P01116, G12C). Description: Ras GTP Binding Domain Inhibition Assay, KRas G12C mutant. The method, then:
as §1, §2, §3, §4, §5

Assay [4] deals with KRas G12D mutant (Homo sapiens (Human), UniProt P01116, G12D). Description: Ras GTP Binding Domain Inhibition Assay, KRas G12D mutant. Conditions: for inhibition at 20 µM: Table 7; for KRas G12D mutant + SOS: % inh. / KRas G12D mutant: % inh.: 20 uM, Table 8. The method, then: as §1, §2, §3, §4, §5
KRas G12D mutant, sequence (P01116 other isoform, or with tags, fused parts or gaps G12D): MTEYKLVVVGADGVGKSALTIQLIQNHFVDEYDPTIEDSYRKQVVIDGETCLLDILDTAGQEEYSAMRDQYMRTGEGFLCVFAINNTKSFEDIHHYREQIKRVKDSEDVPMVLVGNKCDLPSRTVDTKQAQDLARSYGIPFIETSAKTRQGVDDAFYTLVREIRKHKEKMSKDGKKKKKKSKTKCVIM
The target of assay [5] is Rho-A (Homo sapiens (Human), UniProt P61586). The assay can be described thus: Ras GTP Binding Domain Inhibition Assay, Rho-A. The following applies: without SOS, read-out: Rho-A: % inh. The method, then:
as §1, §2, §3, §4, §5

The mark [6] stands for this setting: + SOS, read-out: KRas wild type + SOS: % inh.
Where [7] appears, read: without SOS, read-out: KRas wild type: % inh.
[8] abbreviates: + SOS, read-out: KRas G12C mutant + SOS: % inh.
The mark [9] stands for this setting: without SOS, read-out: KRas G12C mutant: % inh.
Setting [10] is: + SOS, read-out: KRas G12D mutant + SOS: % inh.
The mark [11] stands for this setting: without SOS, read-out: KRas G12D mutant: % inh.

The results in this text go back to patent US20240124483A1, “Methods for the Treatment of Fibrotic Disease” (SHY Therapeutics, LLC, priority 2021, published 2024).

Molecules are shown by their SMILES. Where two headings read alike, the source gives them in different places.

KRas G12C mutant, sequence (P01116 other isoform, or with tags, fused parts or gaps G12C): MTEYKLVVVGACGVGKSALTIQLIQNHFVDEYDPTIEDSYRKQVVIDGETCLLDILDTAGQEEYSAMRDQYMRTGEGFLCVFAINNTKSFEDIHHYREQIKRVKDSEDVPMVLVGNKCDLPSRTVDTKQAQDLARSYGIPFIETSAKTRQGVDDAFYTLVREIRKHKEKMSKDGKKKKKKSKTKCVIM
Rho-A, sequence (P61586 whole entry, species assumed, the tested form may be a part): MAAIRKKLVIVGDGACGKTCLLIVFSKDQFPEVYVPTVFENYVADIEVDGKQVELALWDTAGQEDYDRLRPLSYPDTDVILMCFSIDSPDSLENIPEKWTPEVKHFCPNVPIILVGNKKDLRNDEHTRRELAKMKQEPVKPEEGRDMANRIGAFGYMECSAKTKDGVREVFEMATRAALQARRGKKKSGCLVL

As to `COc1cc(Nc2nc(-c3nccn3C)nc3sc(-c4ccn(C(C)C)n4)c(C)c23)ncn1` [Compound 19, 6-(1-Isopropyl-1H-pyrazol-3-yl)-N-(6-methoxypyrimidin-4-yl)-5-methyl-2-(1-methyl-1H-imidazol-2-yl)thieno[2,3-d]pyrimidin-4-amine], the “Activation of JNK in PANC-1” value in assay [1] is “Y”. In addition, the inhibition at 20 µM in assay [2] (setting [6]) was in the range of 76 to 100%; in assay [2] (setting [7]), 76 to 100%; in assay [3] (setting [8]) it was 76 to 100%; in assay [3] (setting [9]) it was 46 to 75%; in assay [4] (setting [10]), 46 to 75%; in assay [4] (setting [11]) it was 26 to 45%. Moreover, the inhibition at 20 µM in assay [5] lay in the range of 76 to 100%. For the same compound, the “KRas G12D mutant + SOS: % inh.” value in assay [4] (+ SOS) is given as “C (C = 46-75% inhibition)”. Also, in assay [4] (without SOS), the “KRas G12D mutant: % inh.” value is reported as “B (B = 26-45% inhibition)”.

Take `COc1nccc(-c2sc3nc(-c4nccn4C)nc(N[C@H]4C[C@H](OC)C4)c3c2-c2ccccc2)c1F` [Compound 45, 6-(3-Fluoro-2-methoxypyridin-4-yl)-N-((1r,3r)-3-methoxycyclobutyl)-2-(1-methyl-1H-imidazol-2-yl)-5-phenylthieno[2,3-d]pyrimidin-4-amine]: the “Activation of JNK in PANC-1” value in assay [1] is “Y”. In addition, the inhibition at 20 µM in assay [2] (setting [6]) lay within 76 to 100%; in assay [2] (setting [7]) it was 46 to 75%; in assay [3] (setting [8]) it was 76 to 100%; in assay [3] (setting [9]), 26 to 45%; in assay [4] (setting [10]), 46 to 75%; in assay [4] (setting [11]), 46 to 75%. Moreover, the inhibition at 20 µM in assay [5] fell in the range of 46 to 75%. The “KRas G12D mutant + SOS: % inh.” value in assay [4] (+ SOS) is on record as “C (C = 46-75% inhibition)”. Moreover, the “KRas G12D mutant: % inh.” value in assay [4] (without SOS) is listed as “C (C = 46-75% inhibition)”.

For the compound `COCCCCn1c(-c2nccn2C)nc2sc(-c3ccn(C(C)C)n3)c(C)c2c1=O` [Compound 33, 6-(1-Isopropyl-1H-pyrazol-3-yl)-3-(4-methoxybutyl)-5-methyl-2-(1-methyl-1H-imidazol-2-yl)thieno[2,3-d]pyrimidin-4(3H)-one], the “Activation of JNK in PANC-1” value in assay [1] was “N”. Besides, the inhibition at 20 µM in assay [2] (setting [6]) was 1 to 25%; in assay [2] (setting [7]), 0%; in assay [3] (setting [8]), 1 to 25%; in assay [3] (setting [9]) it was 0%; in assay [4] (setting [10]), 0%; in assay [4] (setting [11]), 0%. Besides, in assay [5], the inhibition at 20 µM was found to be 0%. In addition, in assay [4] (+ SOS), the “KRas G12D mutant + SOS: % inh.” value is recorded as 0 (0 = 0% inhibition). Also, the “KRas G12D mutant: % inh.” value in assay [4] (without SOS) is 0 (0 = 0% inhibition).

For `COCCCOc1nc(-c2nccn2C)nc2sc(-c3ccn(C(C)C)n3)c(C)c12` [Compound 32, 6-(1-Isopropyl-1H-pyrazol-3-yl)-4-(3-methoxypropoxy)-5-methyl-2-(1-methyl-1H-imidazol-2-yl)thieno[2,3-d]pyrimidine], the “Activation of JNK in PANC-1” value in assay [1] is reported as “Y”. Moreover, the inhibition at 20 µM was 76 to 100% in assay [2] (setting [6]); 76 to 100% in assay [2] (setting [7]); 46 to 75% in assay [3] (setting [8]); 46 to 75% in assay [3] (setting [9]); 46 to 75% in assay [4] (setting [10]); 46 to 75% in assay [4] (setting [11]). Also, the inhibition at 20 µM in assay [5] was in the range of 76 to 100%. In assay [4] (+ SOS), the “KRas G12D mutant + SOS: % inh.” value is reported as “C (C = 46-75% inhibition)”. In addition, the “KRas G12D mutant: % inh.” value in assay [4] (without SOS) is reported as “C (C = 46-75% inhibition)”.
